Reference: publication PMC6366416, “Synthesis and in vitro anticancer activity of certain novel 1-(2-methyl-6-arylpyridin-3-yl)-3-phenylureas as apoptosis-inducing agents” (Journal of Enzyme Inhibition and Medicinal Chemistry, 2019)

How the values were obtained:
PC-3 = test: NCI one-dose SRB growth inhibition; assay type: cell-based; conditions: Homo sapiens, PC-3, 48 h, Prostate, read-out: GI% PC-3
Description: (§1) The antitumor assay was performed according to the protocol of the Drug Evaluation Branch, NCI, Bethesda[24–26]. A 48 h drug exposure protocol was adopted, and sulforhodamine B (SRB) assay[27] was utilized to assess the cell growth and viability, as reported earlier[17]^,[28].
(§2) The structures of all the newly synthesized pyridines 5a–l were submitted to the National Cancer Institute (NCI) Developmental Therapeutic Program (www.dtp.nci.nih.gov). […] Nine different types of cancer were tested in this assay: colon, ovarian, prostate, leukemia, melanoma, CNS, renal, breast and lung cancers. A 48 h drug exposure protocol was adopted, and sulforhodamine B (SRB) assay[27] was utilized to assess the cell growth and viability.

BT-549 = test: NCI one-dose SRB growth inhibition; assay type: cell-based; conditions: Homo sapiens, Breast Cancer, 48 h, read-out: GI% BT-549
Description: as §1, §2

T-47D = test: NCI one-dose SRB growth inhibition; assay type: cell-based; conditions: Homo sapiens, T47D, 48 h, Breast Cancer, read-out: GI% T-47D
Description: as §1, §2

EKVX = test: NCI one-dose SRB growth inhibition; assay type: cell-based; conditions: Homo sapiens, Non-Small Cell Lung Cancer, 48 h, read-out: GI% EKVX
Description: as §1, §2

UO-31 = test: NCI one-dose SRB growth inhibition; assay type: cell-based; conditions: Homo sapiens, Renal Cancer, 48 h, read-out: GI% UO-31
Description: as §1, §2

HOP-62 = test: NCI one-dose SRB growth inhibition; assay type: cell-based; conditions: Homo sapiens, Non-Small Cell Lung Cancer, 48 h, read-out: GI% HOP-62
Description: as §1, §2

IGROV1 = test: NCI one-dose SRB growth inhibition; assay type: cell-based; conditions: Homo sapiens, IGROV-1, Ovarian Cancer, 48 h, read-out: GI% IGROV1
Description: as §1, §2

UACC-62 = test: NCI one-dose SRB growth inhibition; assay type: cell-based; conditions: Homo sapiens, UACC-62, 48 h, Melanoma, read-out: GI% UACC-62
Description: as §1, §2

SN12C = test: NCI one-dose SRB growth inhibition; assay type: cell-based; conditions: Homo sapiens, Renal Cancer, 48 h, read-out: GI% SN12C
Description: as §1, §2

MDA-MB-231 = test: NCI one-dose SRB growth inhibition; assay type: cell-based; conditions: Homo sapiens, Breast Cancer, 48 h, read-out: GI% MDA-MB-231
Description: as §1, §2

SK-OV-3 = test: NCI one-dose SRB growth inhibition; assay type: cell-based; conditions: Homo sapiens, Ovarian Cancer, 48 h, read-out: GI% SK-OV-3
Description: as §1, §2

SR = test: NCI one-dose SRB growth inhibition; assay type: cell-based; conditions: Homo sapiens, 48 h, Leukemia, read-out: GI% SR
Description: as §1, §2

A549/ATCC = test: NCI one-dose SRB growth inhibition; assay type: cell-based; conditions: Homo sapiens, A549, 48 h, Non-Small Cell Lung Cancer, read-out: GI% A549/ATCC
Description: as §1, §2

OVCAR-5 = test: NCI one-dose SRB growth inhibition; assay type: cell-based; conditions: Homo sapiens, Ovarian Cancer, 48 h, read-out: GI% OVCAR-5
Description: as §1, §2

SK-MEL-5 = test: NCI one-dose SRB growth inhibition; assay type: cell-based; conditions: Homo sapiens, Melanoma, 48 h, read-out: GI% SK-MEL-5
Description: as §1, §2

MDA-MB-468 = test: NCI one-dose SRB growth inhibition; assay type: cell-based; conditions: Homo sapiens, Breast Cancer, 48 h, read-out: GI% MDA-MB-468
Description: as §1, §2

M14 = test: NCI one-dose SRB growth inhibition; assay type: cell-based; conditions: Homo sapiens, M14, 48 h, Melanoma, read-out: GI% M14
Description: as §1, §2

MCF7 = test: NCI one-dose SRB growth inhibition; assay type: cell-based; conditions: Homo sapiens, Breast Cancer, 48 h, read-out: GI% MCF7
Description: as §1, §2

U251 = test: NCI one-dose SRB growth inhibition; assay type: cell-based; conditions: Homo sapiens, U-251, CNS Cancer, 48 h, read-out: GI% U251
Description: as §1, §2

RPMI-8226 = test: NCI one-dose SRB growth inhibition; assay type: cell-based; conditions: Homo sapiens, RPMI-8226, 48 h, Leukemia, read-out: GI% RPMI-8226
Description: as §1, §2

OVCAR-3 = test: NCI one-dose SRB growth inhibition; assay type: cell-based; conditions: Homo sapiens, OVCAR-3, 48 h, Ovarian Cancer, read-out: GI% OVCAR-3
Description: as §1, §2

HCT-116 = test: NCI one-dose SRB growth inhibition; assay type: cell-based; conditions: Homo sapiens, HCT-116, 48 h, Colon Cancer, read-out: GI% HCT-116
Description: as §1, §2

HCT-116 cell line = test: MTT anti-proliferative assay; assay type: cell-based; conditions: Homo sapiens, 48 h of incubation, mean ± SD of three experiments
Description: (§3) A549 (non-small cell lung cancer cell line) and HCT-116 (human colon cancer cell line), were obtained from American Type Culture Collection (Manassas, VA, USA). The cells were maintained in Dulbecco’s Modified Eagle’s Medium (DMEM) (Sigma-Aldrich, St. Louis, MO), and supplemented with 10% heat-inactivated FBS (Hyclone), 10 μg/mL of insulin (Manufacturer, Sigma, St. Louis, MO, USA), and 1% penicillin-streptomycin. MTT assay[29] was adopted to assess the in vitro antitumor activity of the newly synthesized pyridines 5a–l according to the reported procedures, using Doxorubicin as a standard treatment. Experimental conditions were tested using three replicates (three wells of the 96-well plate per experimental condition) and all experiments were carried out in triplicates. IC50 values were calculated by the use of the equation for Boltzman sigmoidal concentration–response curve using the nonlinear regression fitting models by Graph Pad, Prism version 5 (GraphPad Software Inc., La Jolla, CA).
(§4) All newly synthesized pyridines 5a–l were examined for their anti-proliferative activity towards two cancer cell lines: non-small cell lung cancer A549 cell line and colon cancer HCT-116 cell line. The MTT colorimetric assay was adopted to assess the anti-proliferative activity as described by Mosmann[29]. Doxorubicin was used as a control in this assay.

A549 cell line = test: MTT anti-proliferative assay; assay type: cell-based; conditions: Homo sapiens, 48 h of incubation, mean ± SD of three experiments
Description: as §3, §4

[1] = test system: 60 cancer cell lines (NCI, USA); test: NCI one-dose SRB assay, whole panel; assay type: cell-based, human; conditions: 10 μM; for Sensitive cell lines no.: cell lines with GI% higher than 10%
Description: as §1, §2

WI-38 cell line = test: MTT cytotoxicity towards non-tumorigenic cells; assay type: cell-based, human; conditions: for IC50: WI-38, MTT, non-tumorigenic human lung fibroblast, mean ± SD of three experiments; for S. I. WI-38/A549: selectivity index, IC50 WI-38 / IC50 A549
Description: The cytotoxic activity of all synthesized pyridines 5a–l were assessed against non-tumorigenic human lung fibroblast WI-38 cell line to investigate their safety, using the MTT colorimetric assay.

Row | Compound | inhibition at 10 µM (PC-3) | inhibition at 10 µM (BT-549) | inhibition at 10 µM (T-47D) | inhibition at 10 µM (EKVX) | inhibition at 10 µM (UO-31) | inhibition at 10 µM (HOP-62) | inhibition at 10 µM (IGROV1) | inhibition at 10 µM (UACC-62) | inhibition at 10 µM (SN12C) | inhibition at 10 µM (MDA-MB-231) | inhibition at 10 µM (SK-OV-3) | inhibition at 10 µM (SR) | inhibition at 10 µM (A549/ATCC) | inhibition at 10 µM (OVCAR-5) | inhibition at 10 µM (SK-MEL-5) | inhibition at 10 µM (MDA-MB-468) | inhibition at 10 µM (M14) | inhibition at 10 µM (MCF7) | inhibition at 10 µM (U251) | inhibition at 10 µM (RPMI-8226) | further results
1 | Cc1nc(-c2ccc(F)cc2)ccc1NC(=O)Nc1cccc(C(F)(F)F)c1 [Compound 5a, 1-(6-(4-Fluorophenyl)-2-methylpyridin-3-yl)-3-(3-(trifluoromethyl)phenyl)urea] | > 40% | < 10% | > 40% | 17% | 15% | 31% | < 10% | > 40% | 26% | 28% | 13% | > 40% | > 40% | < 10% | 32% | 32% | > 40% | 30% | 31% | > 40% | inhibition at 10 µM (OVCAR-3): > 40%; inhibition at 10 µM (HCT-116): > 40%; IC50 (HCT-116 cell line): 5.49 ± 0.3 µM; IC50 (A549 cell line): 6.83 ± 0.42 µM; Sensitive cell lines no. [1]: 42; mean % GI ([1]; mean over NCI panel): 22%; IC50 (WI-38 cell line): 93.5 ± 5.28 µM; S. I. WI-38/A549 (WI-38 cell line): 13.7
2 | CCOC(=O)c1ccc(NC(=O)Nc2ccc(-c3ccc(F)cc3)nc2C)cc1 [Compound 5c, Ethyl 4-(3-(6-(4-fluorophenyl)-2-methylpyridin-3-yl)ureido)benzoate] | < 10% | < 10% | < 10% | < 10% | < 10% | < 10% | < 10% | 29% | < 10% | < 10% | < 10% | 16% | 25% | < 10% | 38% | < 10% | 38% | 20% | < 10% | 13% | inhibition at 10 µM (OVCAR-3): < 10%; inhibition at 10 µM (HCT-116): < 10%; IC50 (A549 cell line): 9.61 ± 1.03 µM; Sensitive cell lines no. [1]: 13; IC50 (WI-38 cell line): 123 ± 10.2 µM; S. I. WI-38/A549 (WI-38 cell line): 12.8
3 | Cc1nc(-c2ccc(F)cc2)ccc1NC(=O)Nc1ccc2c(c1)OCO2 [Compound 5d, 1-(Benzo[d][1, 3]dioxol-5-yl)-3-(6-(4-fluorophenyl)-2-methylpyridin-3-yl)urea] | < 10% | < 10% | < 10% | < 10% | < 10% | < 10% | < 10% | 20% | < 10% | < 10% | < 10% | 11% | 13% | < 10% | 19% | < 10% | 37% | < 10% | < 10% | < 10% | inhibition at 10 µM (OVCAR-3): < 10%; inhibition at 10 µM (HCT-116): 17%; IC50 (HCT-116 cell line): 10.4 ± 0.84 µM; IC50 (A549 cell line): 12.5 ± 0.85 µM; Sensitive cell lines no. [1]: 12; IC50 (WI-38 cell line): 107 ± 7.03 µM; S. I. WI-38/A549 (WI-38 cell line): 8.6
4 | Cc1nc(-c2ccc(Cl)cc2)ccc1NC(=O)Nc1ccc2c(c1)OCO2 [Compound 5g, 1-(Benzo[d][1,3]dioxol-5-yl)-3-(6-(4-chlorophenyl)-2-methylpyridin-3-yl)urea] | < 10% | < 10% | < 10% | < 10% | < 10% | < 10% | < 10% | 27% | < 10% | < 10% | < 10% | 22% | 32% | < 10% | 17% | < 10% | 29% | < 10% | < 10% | < 10% | inhibition at 10 µM (OVCAR-3): < 10%; inhibition at 10 µM (HCT-116): < 10%; IC50 (A549 cell line): 6.72 ± 0.38 µM; Sensitive cell lines no. [1]: 12; IC50 (WI-38 cell line): 63.5 ± 5.08 µM; S. I. WI-38/A549 (WI-38 cell line): 9.4
5 | Cc1nc(-c2cccs2)ccc1NC(=O)Nc1ccc(Cl)cc1 [Compound 5i, 1-(4-Chlorophenyl)-3-(2-methyl-6-(thiophen-2-yl)pyridin-3-yl)urea] | < 10% | < 10% | 13% | < 10% | < 10% | < 10% | < 10% | 19% | < 10% | < 10% | < 10% | < 10% | 29% | < 10% | < 10% | 17% | < 10% | 12% | < 10% | < 10% | inhibition at 10 µM (OVCAR-3): < 10%; inhibition at 10 µM (HCT-116): < 10%; IC50 (A549 cell line): 8.73 ± 0.71 µM; Sensitive cell lines no. [1]: 9; IC50 (WI-38 cell line): 129 ± 12 µM; S. I. WI-38/A549 (WI-38 cell line): 14.8
